From patent US9758526B2, “Quinoline-substituted compound” (TAIHO PHARMACEUTICAL CO., LTD., priority 2013, dated 2017) come the findings set out here.

What is called GI50 is the concentration that inhibits growth by half. Low readings indicate greater sensitivity of the cells, high ones lower sensitivity of the cells. For orientation: IC50 means the concentration that gives 50% inhibition.

Assay [1] concerns A431 expressing EGFR (WT). Kind of assay: Growth inhibition, A431 expressing EGFR (WT). Type of assay: cell-based. The following applies: Homo sapiens, A-431, 72 h; cultured three days, CellTiter-Glo. Here is the method: (§1) (1) A human […] lung cancer cell line NCI-H1975 expressing EGFR (T790M/L858R), (2) a human non-small cell lung cancer cell line HCC827 expressing EGFR (d746-750), and (3) a human epithelioid cancer cell line A431 expressing EGFR (WT) were each suspended in complete growth medium recommended by ATCC. The cell suspensions were seeded in each well of a 384-well flat microplate or a 96-well flat plate, and cultured in an incubator containing 5% carbon dioxide gas at 37° C. for one day. Each compound of the present invention was dissolved in DMSO, and serial dilutions of the test compound were prepared using DMSO (to a concentration 500 times the final concentration). The DMSO solution of the test compound or DMSO was diluted with complete growth medium, and the resulting solution was added to each well of the cell culture plate so that the final concentration of DMSO was 0.2%. Then, the cells were cultured in an incubator containing 5% carbon dioxide gas at 37° C. for three days. The number of cells was measured before the addition of the DMSO solution of the test compound, as well as after addition and culture by using a CellTiter-Glo Assay® (produced by Promega) according to a protocol recommended by Promega.
(§2) For each cell, the cell growth inhibition rates of the wells to which the test compounds at various concentrations were added were calculated by the following formula. Then, the obtained inhibition rates (%) at the respective concentrations were plotted for each test compound, and the GI50 value (nM), which is a test compound concentration at which the cell growth can be inhibited by 50%, was determined using XLfit curve-fitting software (IDBS). • Cell Growth Inhibition Rate (%)=(C−T)/(C−CO)×100 • T: Luminescence intensity of well cultured for three days after addition of the test compound solution • C: Luminescence intensity of well cultured for three days after addition of DMSO • C0: Luminescence intensity of well before addition of the test compound solution
(In general: Cellular ATP, detected with luciferase, serves as a proxy for viable cell number.)

For assay [2], the target named is T1, EGFR (T790M/L858R) (Homo sapiens, UniProt P00533, L858R/T790M).
T1 construct: purchased Carna Biosciences, Inc
Kind of assay: EGFR (T790M/L858R) kinase inhibitory activity. The following applies: ATP 1 μM, 25° C. for 120 minutes. It is filed as biochemical. As for the experimental part:
The inhibitory activities of the compounds of the present invention against EGFR (T790M/L858R) kinase activity were measured.
(§3) Among the materials of the inhibitory activity measurement, the substrate peptide and the kinase protein were obtained as follows. A peptide with biotinylated N-terminus (biotin-EEPLYWSFPAKKK) was synthesized with reference to FL-Peptide 22, a reagent for LabChip® series of PerkinElmer, Inc. For the kinase protein, a purified recombinant human EGFR (T790M/L858R) protein of Carna Biosciences, Inc. was purchased.
(§4) The inhibitory activity measurement was performed as follows. The compounds of the present invention were individually dissolved in dimethyl sulfoxide (DMSO), and serial dilutions of these compounds were prepared using DMSO. Subsequently, a solution containing the substrate peptide (final concentration: 250 nM), magnesium chloride (final concentration: 10 mM), manganese chloride (final concentration: 10 mM), and ATP (final concentration: 1 μM) in a buffer solution for kinase reaction (Carna Biosciences, Inc.) was mixed with the dilutions of the compounds (final concentration of DMSO upon kinase reaction: 2.5%) or DMSO (final concentration: 2.5%). EGFR (T790M/L858R) protein was further added thereto, and the mixtures were incubated at 25° C. for 120 minutes to carry out a kinase reaction. EDTA was added thereto to a final concentration of 24 mM to thereby terminate the reaction. A phosphorylated thyrosine detection solution containing europium (Eu)-labeled anti-phosphorylated tyrosine antibody PT66 (PerkinElmer, Inc.) and SureLight APC-SA (PerkinElmer, Inc.) was added to the reaction mixtures, and the mixtures were allowed to stand at room temperature for 2 hours or more. For the background, a sample to which EDTA was added before addition of EGFR (T790M/L858R) protein was incubated at 25° C. for 120 minutes, using DMSO instead of the DMSO solution of the compound. The detection solution was also added to this sample, and the mixture was allowed to stand for 2 hours or more. Finally, for all of the test samples, the amount of fluorescence at the time of irradiation of excitation light having a wavelength of 337 nm was measured at dual wavelengths of 620 nm and 665 nm by PHERAstar FS (BMG LABTECH), and a ratio of the fluorescence amounts at the two wavelengths was obtained as data.
(§5) Based on the above rates, phosphorylation inhibition rates (%) were calculated for the samples to which various concentrations of the compound solutions were added. Finally, the obtained reaction inhibition rates (%) at the respective concentrations were plotted for each compound, and the IC50 value (nM), which is a compound concentration at which phosphorylation by EGFR (T790M/L858R) is inhibited by 50%, was determined using XLfit curve-fitting software (IDBS).

Assay [3] has as its system HCC827 expressing EGFR (d746-750). Kind of assay: Growth inhibition, HCC827 expressing EGFR (d746-750). It is filed as cell-based. The following applies: Homo sapiens, HCC827, 72 h; cultured three days, CellTiter-Glo. As for the experimental part: as §1, §2
In assay [4] the target is T2, EGFR (L858R) (Homo sapiens, UniProt P00533, L858R).
T2 construct: purchased Carna Biosciences, Inc
Kind of assay: EGFR (L858R) kinase inhibitory activity. Type of assay: biochemical. As to conditions: ATP 4 μM. Here is the method:
as §3, §4, §5
The inhibitory activities of the compounds of the present invention against EGFR (L858R) kinase activity were measured.
The materials, the measurement method, and the data analysis method were substantially the same as those shown in the above description regarding “Measurement of EGFR (T790M/L858R) Kinase Inhibitory Activity,” except that a purified recombinant human EGFR (L858R) protein purchased from Carna Biosciences, Inc. was used as the kinase protein, and the measurement was performed with ATP at a final concentration of 4 μM. Finally, the IC50 value (nM) of each compound with respect to EGFR (L858R) was determined by data analysis.

The target of assay [5] is T3, EGFR (d746-750/T790M) (Homo sapiens, UniProt P00533, DEL746-750/T790M).
T3 construct: purchased Carna Biosciences, Inc
Kind of assay: EGFR (d746-750/T790M) kinase inhibitory activity. Type of assay: biochemical. As to conditions: ATP 1.5 μM. Here is the method:
as §3, §4, §5
The inhibitory activities of the compounds of the present invention against EGFR (d746-750/T790M) kinase activity were measured.
The materials, the measurement method, and the data analysis method were substantially the same as those shown in the above description regarding “Measurement of EGFR (T790M/L858R) Kinase Inhibitory Activity,” except that a purified recombinant human EGFR (d746-750/T790M) protein purchased from Carna Biosciences, Inc. was used as the kinase protein, and the measurement was performed with an ATP final concentration of 1.5 μM. Finally, the IC50 value (nM) of each compound with respect to EGFR (d746-750/T790M) was determined by data analysis.

Assay [6] deals with T4, EGFR (d746-750) (Homo sapiens, UniProt P00533, DEL746-750).
T4 construct: purchased Carna Biosciences, Inc
Kind of assay: EGFR (d746-750) kinase inhibitory activity. As to conditions: ATP 5 μM, kinase reaction 90 minutes. Type of assay: biochemical. As for the experimental part:
as §3, §4, §5
The inhibitory activities of the compounds of the present invention against EGFR (d746-750) kinase activity were measured.
The materials, the measurement method, and the data analysis method were substantially the same as those shown in the above description regarding “Measurement of EGFR (T790M/L858R) Kinase Inhibitory Activity,” except that a purified recombinant human EGFR (d746-750) protein purchased from Carna Biosciences, Inc. was used as the kinase protein, the measurement was performed with ATP at a final concentration of 5 μM, and the incubation for the kinase reaction was performed for 90 minutes. Finally, the IC50 value (nM) of each compound with respect to EGFR (d746-750) was determined by data analysis.

In assay [7] the test system is NCI-H1975 expressing EGFR (T790M/L858R). Kind of assay: Growth inhibition, NCI-H1975 expressing EGFR (T790M/L858R). Type of assay: cell-based. The following applies: Homo sapiens, NCI-H1975, 72 h; cultured three days, CellTiter-Glo. Here is the method:
as §1, §2

Assay [8] addresses T5, EGFR (WT) (Homo sapiens, UniProt P00533).
T5 construct: expressing a cytoplasmic domain of human EGFR (WT) with its N-terminus fused to a FLAG tag; FLAG (N); made in house; host or cells: insect Sf9 cells, baculovirus expression system
Kind of assay: EGFR (WT) kinase inhibitory activity. It is filed as biochemical. As to conditions: substrate peptide 500 nM. Here is the method: as §3, §4, §5
The inhibitory activities of the compounds of the present invention against EGFR (WT) kinase activity were measured.
The materials, the measurement method, and the data analysis method were substantially the same as those shown in the above description regarding “Measurement of EGFR (T790M/L858R) Kinase Inhibitory Activity,” except that a kinase protein prepared by expressing a cytoplasmic domain of human EGFR (WT) with its N-terminus fused to a FLAG tag in insect Sf9 cells using a baculovirus expression system and then purifying it with anti-FLAG antibody agarose (Sigma-Aldrich) was used as the kinase protein, the final concentration of the substrate peptide was 500 nM, and the final concentration of ATP was […]. Finally, the IC50 value (nM) of each compound with respect to EGFR (WT) was determined by data analysis.

T2 sequence (P00533 25-1210 L858R): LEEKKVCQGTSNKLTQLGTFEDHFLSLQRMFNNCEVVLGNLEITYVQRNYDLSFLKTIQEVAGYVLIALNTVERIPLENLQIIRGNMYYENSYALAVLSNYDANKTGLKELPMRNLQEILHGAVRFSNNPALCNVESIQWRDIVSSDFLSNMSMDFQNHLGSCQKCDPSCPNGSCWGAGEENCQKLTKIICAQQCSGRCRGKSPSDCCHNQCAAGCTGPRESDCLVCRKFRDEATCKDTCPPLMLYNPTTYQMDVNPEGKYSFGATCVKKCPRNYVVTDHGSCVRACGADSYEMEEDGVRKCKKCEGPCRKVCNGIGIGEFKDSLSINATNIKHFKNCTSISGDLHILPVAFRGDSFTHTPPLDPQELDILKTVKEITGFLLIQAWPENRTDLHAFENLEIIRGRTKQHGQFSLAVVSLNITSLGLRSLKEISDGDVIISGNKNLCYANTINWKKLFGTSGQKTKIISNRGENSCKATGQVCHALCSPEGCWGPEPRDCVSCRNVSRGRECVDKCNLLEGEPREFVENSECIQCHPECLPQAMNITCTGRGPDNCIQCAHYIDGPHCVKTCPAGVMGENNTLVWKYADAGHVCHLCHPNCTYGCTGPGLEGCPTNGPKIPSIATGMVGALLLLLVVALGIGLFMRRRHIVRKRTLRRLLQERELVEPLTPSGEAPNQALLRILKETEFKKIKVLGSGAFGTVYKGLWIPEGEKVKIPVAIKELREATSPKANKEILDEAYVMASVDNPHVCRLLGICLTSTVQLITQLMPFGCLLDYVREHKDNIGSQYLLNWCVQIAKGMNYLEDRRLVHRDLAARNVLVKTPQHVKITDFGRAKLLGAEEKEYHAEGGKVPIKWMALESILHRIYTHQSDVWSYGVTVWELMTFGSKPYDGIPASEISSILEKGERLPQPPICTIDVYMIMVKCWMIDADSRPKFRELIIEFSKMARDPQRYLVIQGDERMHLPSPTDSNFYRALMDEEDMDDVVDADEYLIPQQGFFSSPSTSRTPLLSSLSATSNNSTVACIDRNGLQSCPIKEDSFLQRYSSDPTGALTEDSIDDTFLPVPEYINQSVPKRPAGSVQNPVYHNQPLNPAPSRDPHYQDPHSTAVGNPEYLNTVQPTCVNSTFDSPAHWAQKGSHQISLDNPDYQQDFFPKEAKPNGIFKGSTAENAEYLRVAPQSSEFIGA
T1 sequence (P00533 25-1210 T790M/L858R): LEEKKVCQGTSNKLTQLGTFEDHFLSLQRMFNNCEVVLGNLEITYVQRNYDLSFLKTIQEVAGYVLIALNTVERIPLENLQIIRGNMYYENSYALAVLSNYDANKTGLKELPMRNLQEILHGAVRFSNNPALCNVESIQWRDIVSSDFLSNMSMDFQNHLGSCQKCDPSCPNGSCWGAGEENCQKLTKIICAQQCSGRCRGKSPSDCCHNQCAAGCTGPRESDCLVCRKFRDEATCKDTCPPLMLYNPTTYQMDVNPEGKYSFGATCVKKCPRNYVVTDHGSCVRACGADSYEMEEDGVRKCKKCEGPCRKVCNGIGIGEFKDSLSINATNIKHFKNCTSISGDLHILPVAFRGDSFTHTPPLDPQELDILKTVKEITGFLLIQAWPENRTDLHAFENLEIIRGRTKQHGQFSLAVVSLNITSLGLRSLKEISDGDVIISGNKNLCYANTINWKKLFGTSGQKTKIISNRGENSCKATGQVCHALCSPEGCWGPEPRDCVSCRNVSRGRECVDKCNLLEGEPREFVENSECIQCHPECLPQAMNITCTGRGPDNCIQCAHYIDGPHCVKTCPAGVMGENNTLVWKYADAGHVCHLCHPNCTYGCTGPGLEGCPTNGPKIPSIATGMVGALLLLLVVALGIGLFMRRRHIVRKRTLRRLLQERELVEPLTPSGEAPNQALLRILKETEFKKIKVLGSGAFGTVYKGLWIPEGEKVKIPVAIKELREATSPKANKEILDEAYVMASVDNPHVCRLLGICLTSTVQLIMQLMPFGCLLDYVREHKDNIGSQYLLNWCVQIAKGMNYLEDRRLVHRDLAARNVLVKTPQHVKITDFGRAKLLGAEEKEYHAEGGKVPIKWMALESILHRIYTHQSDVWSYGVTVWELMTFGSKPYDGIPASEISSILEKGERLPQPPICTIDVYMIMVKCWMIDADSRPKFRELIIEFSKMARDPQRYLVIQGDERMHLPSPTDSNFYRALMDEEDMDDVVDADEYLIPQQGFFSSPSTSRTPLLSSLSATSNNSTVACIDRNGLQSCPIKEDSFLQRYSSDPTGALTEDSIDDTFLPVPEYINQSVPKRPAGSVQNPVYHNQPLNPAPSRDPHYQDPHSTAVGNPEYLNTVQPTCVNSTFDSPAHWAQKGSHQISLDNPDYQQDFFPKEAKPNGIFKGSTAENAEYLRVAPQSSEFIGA
T5 sequence (P00533 669-1210 limits assumed): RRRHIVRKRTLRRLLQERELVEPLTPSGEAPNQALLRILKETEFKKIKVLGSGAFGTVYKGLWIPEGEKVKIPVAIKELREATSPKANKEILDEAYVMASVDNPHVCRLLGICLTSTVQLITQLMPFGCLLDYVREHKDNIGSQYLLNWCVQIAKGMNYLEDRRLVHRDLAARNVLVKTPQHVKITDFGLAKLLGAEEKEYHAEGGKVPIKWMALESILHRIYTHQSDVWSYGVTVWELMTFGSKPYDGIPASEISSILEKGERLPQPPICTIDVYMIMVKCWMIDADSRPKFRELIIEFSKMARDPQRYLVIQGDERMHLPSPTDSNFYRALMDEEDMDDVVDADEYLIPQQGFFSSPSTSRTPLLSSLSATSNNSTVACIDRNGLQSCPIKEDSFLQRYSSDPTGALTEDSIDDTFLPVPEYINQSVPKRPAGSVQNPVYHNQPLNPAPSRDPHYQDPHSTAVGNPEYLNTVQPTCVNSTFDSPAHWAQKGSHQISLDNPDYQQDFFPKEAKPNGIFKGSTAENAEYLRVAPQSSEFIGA
T3 sequence (P00533 with tags, fused parts or gaps DEL746-750/T790M limits assumed): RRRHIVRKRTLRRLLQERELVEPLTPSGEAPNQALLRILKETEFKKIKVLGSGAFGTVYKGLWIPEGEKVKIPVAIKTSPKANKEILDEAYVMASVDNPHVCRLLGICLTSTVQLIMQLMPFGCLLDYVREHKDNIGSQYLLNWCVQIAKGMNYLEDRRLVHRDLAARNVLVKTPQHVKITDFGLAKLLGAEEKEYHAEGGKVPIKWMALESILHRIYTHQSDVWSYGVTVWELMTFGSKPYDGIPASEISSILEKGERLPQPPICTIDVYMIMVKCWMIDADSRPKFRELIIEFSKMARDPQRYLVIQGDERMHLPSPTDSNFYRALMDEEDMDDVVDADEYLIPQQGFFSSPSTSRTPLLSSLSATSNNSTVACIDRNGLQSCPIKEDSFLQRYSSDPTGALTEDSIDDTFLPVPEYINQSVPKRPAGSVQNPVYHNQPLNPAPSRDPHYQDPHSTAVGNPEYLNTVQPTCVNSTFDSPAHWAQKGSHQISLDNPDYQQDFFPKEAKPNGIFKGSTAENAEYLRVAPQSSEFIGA
T4 sequence (P00533 with tags, fused parts or gaps DEL746-750 limits assumed): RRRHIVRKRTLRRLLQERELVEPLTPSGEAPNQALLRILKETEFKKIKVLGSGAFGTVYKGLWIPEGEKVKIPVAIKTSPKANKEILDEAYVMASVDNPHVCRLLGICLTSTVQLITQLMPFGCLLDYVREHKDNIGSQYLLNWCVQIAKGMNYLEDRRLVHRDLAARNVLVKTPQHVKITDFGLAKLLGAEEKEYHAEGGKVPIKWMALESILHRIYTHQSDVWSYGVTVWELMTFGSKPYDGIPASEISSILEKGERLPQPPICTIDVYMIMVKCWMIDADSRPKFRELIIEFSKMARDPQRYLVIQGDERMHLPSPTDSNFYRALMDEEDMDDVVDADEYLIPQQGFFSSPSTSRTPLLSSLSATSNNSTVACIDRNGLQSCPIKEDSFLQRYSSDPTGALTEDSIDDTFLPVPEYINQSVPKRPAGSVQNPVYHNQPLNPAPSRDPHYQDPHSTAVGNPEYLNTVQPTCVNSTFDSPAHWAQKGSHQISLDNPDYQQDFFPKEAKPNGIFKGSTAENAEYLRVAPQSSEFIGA

For the molecule `C=C1c2c(-c3cnc4ccccc4c3)c3c(N)ncnc3n2C[C@H]1NC(=O)/C=C/Cl` [Example 5, (S,E)-N-(4-amino-6-methylene-5-(quinolin-3-yl)-7,8-dihydro-6H-pyrimido[5,4-b]pyrrolizin-7-yl)-3-chloroacrylamide], the GI50 in assay [1] amounted to 2200 nM; in assay [3], 8.1 nM; in assay [7], 51 nM. The IC50 in assay [2] was < 0.15 nM; in assay [4] it was < 0.15 nM; in assay [5] it was < 0.15 nM; in assay [6], < 0.15 nM; in assay [8] it was 0.78 nM.

For `C=C1c2c(-c3cnc4ccccc4c3)c3c(N)ncnc3n2C[C@H]1NC(=O)/C=C/CN(CC)CC` [Example 10, (S,E)-N-(4-amino-6-methylene-5-(quinolin-3-yl)-7,8-dihydro-6H-pyrimido[5,4-b]pyrrolizin-7-yl)-4-(diethylamino)but-2-enamide], the GI50 in assay [1] is 4400 nM; in assay [3], 8.1 nM; in assay [7], 310 nM. The IC50 in assay [2] is 1.5 nM; in assay [4] it was 2.6 nM; in assay [5] it was 0.61 nM; in assay [6], 1.8 nM; in assay [8], 22 nM.

With `C=CC(=O)N(C)[C@H]1Cn2c(c(-c3cnc4ccccc4c3)c3c(N)ncnc32)C1=C` [Example 21, (R)—N-(4-amino-6-methylene-5-(quinolin-3-yl)-7,8-dihydro-6H-pyrimido[5,4-b]pyrrolizin-7-yl)-N-methylacrylamide], the GI50 in assay [1] was 2600 nM; in assay [3] it was 8.1 nM; in assay [7] it was 56 nM. In addition, the IC50 in assay [2] was 0.6 nM; in assay [4] it was 1.1 nM; in assay [5], 0.34 nM; in assay [6], 0.72 nM; in assay [8], 7.8 nM.

For the molecule `C=CC(=O)N[C@H]1C=C(C)c2c(-c3cnc4ccccc4c3)c3c(N)ncnc3n2C1` [Example 14, (S)—N-(4-amino-6-methyl-5-(quinolin-3-yl)-8,9-dihydropyrimido[5,4-b]indolizin-8-yl)acrylamide], the GI50 worked out at 1900 nM in assay [1], 2.5 nM in assay [3] and 22 nM in assay [7]. Besides, the IC50 in assay [2] was 0.24 nM; in assay [4], 0.32 nM; in assay [5], < 0.5 nM; in assay [6] it was 0.19 nM; in assay [8], 2.9 nM.

`C=C1c2c(-c3cnc4ccccc4c3)c3c(N)ncnc3n2C[C@H]1NC(=O)C=CC` (mixture of isomers) [Example 3, (S)—N-(4-amino-6-methylene-5-(quinolin-3-yl)-7,8-dihydro-6H -pyrimido[5,4-b]pyrrolizin-7-yl)but-2-enamide]: the results for the GI50 in assay [1], in assay [3] and in assay [7] were > 10000 nM, 16 nM and 560 nM, respectively. Further, the IC50 in assay [2] was 6.1 nM; in assay [4], 15 nM; in assay [5] it was 1.8 nM; in assay [6] it was 7.6 nM; in assay [8], 110 nM.

Consider `C=CC(=O)N[C@@H]1C=C(C)c2c(-c3cnc4ccccc4c3)c3c(N)ncnc3n2C1` [Example 16, (R)—N-(4-amino-6-methyl-5-(quinolin-3-yl)-8,9-dihydropyrimido[5,4-b]indolizin-8-yl)acrylamide], for which the GI50 in assay [1] is > 10000 nM; in assay [3], 27 nM; in assay [7] it was 600 nM. In addition, the IC50 is 11 nM in assay [2]; 39 nM in assay [4]; 3 nM in assay [5]; 15 nM in assay [6]; 480 nM in assay [8].

Consider `C=CC(=O)N[C@H]1CC(=C)c2c(-c3cnc4ccccc4c3)c3c(N)ncnc3n2C1` [Example 15, (S)—N-(4-amino-6-methylene-5-(quinolin-3-yl)-6,7,8,9-tetrahydropyrimido[5,4-b]indolizin-8-yl)acrylamide], for which the GI50 in assay [1] is 2000 nM; in assay [3], 22 nM; in assay [7], 85 nM. Also, the IC50 in assay [2] was found to be 1.6 nM; in assay [4], 1.3 nM; in assay [5] it was 1.2 nM; in assay [6], 1.4 nM; in assay [8], 7.9 nM.
